Laboratory results from patent publication US10301320B2, “Compositions and methods of modulating 15-PGDH activity” (CASE WESTERN RESERVE UNIVERSITY, priority 2012, dated 2019).
“Also recorded” adds a separate entry of the source. Where two headings read alike, the source gives them in different places.

How the values were obtained:
[1] = test system: wild-type mouse bone marrow; assay: Hematopoietic colonies from bone marrow treated ex vivo; assay type: cell-based; details: 1 uM, ex vivo on ice for 2 hours; compared with SW033291
Text: Treated marrow is again then plated into methylcellulose for counting of hematopoietic colonies.

[2] = target: T1, recombinant 15-PGDH protein (Homo sapiens (Human), UniProt P15428); assay: Melting temperature shift of recombinant 15-PGDH (SYPRO Orange); assay type: binding
[3] = test system: V9m reporter cell line expressing a 15-PGDH luciferase fusion construct; assay: 15-PGDH-luciferase fusion gene reporter induction, V9m cell line; assay type: cell-based; details: […], % increased luciferase activity over basal level
Outline: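 Colon cancer reporter lines were treated with compound at 2.5 uM or 7.5 uM. Luciferase activity is expressed as % increase over basal level in DMSO vehicle-treated cells, where 100 means a doubling.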

[4] = target: T1, recombinant 15-PGDH protein; assay: Inhibition of enzymatic activity of recombinant 15-PGDH in vitro; assay type: biochemical; details: for inhibition at […]: read-out: Enzyme inhibition % ([…]), recombinant 15-PGDH, […] compound;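 on all read-outs here: activity of recombinant human 15-PGDH assayed in vitro using PGE2 as the substrate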
A549 cells [5] = assay: Cellular toxicity on A549 cells (CellTiter-Glo, cell numbers); assay type: cell-based; details: for Toxicity, CellTiter-Glo: 24 hours, up to 10 uM in FIG. 38
Experimental: Time to inhibition refers to the time needed to inhibit the generation of NADH by 15-PGDH from the moment with drug is added into the reaction mix. Delta™ refers to the shift in melting temperature of recombinant 15-PGDH in the presence of drug (with cofactor NADH also present). Concentration of Full Cell Line Reporter Induction refers to the concentration of drug that needs to be added to reporter cell line to achieve maximal induction of the 15-PGDH-luciferase gene fusion reporter cassette, as measured by luciferase assays. Hepatocyte stability refers to the half-life of compound in the presence of hepatocytes in culture. Toxicity refers to the concentration of compound needed to decrease cell numbers in a cell culture assay.
FIGS. 38(A-C) show assays of cellular toxicity on A549 cells at 24 hours of 15-PGDH inhibitors as assayed by CellTiter-Glo measurement.
FIGS. 84(A-C) show at left (84A) activity in lowering PGE2 levels in media of A549 cells that are stimulated to produce PGE2 by treatment with IL1-beta.

A549 cells [6] = assay: PGE2 levels in medium of IL1-beta stimulated A549 cells; assay type: cell-based; details: for Effect on PGE2 levels in medium, in words: IL1-beta stimulated A549 cells
[7] = test system: 15-PGDH-luciferase fusion reporter in V9m, LS174T and V503 cell lines; assay: 15-PGDH-luciferase fusion gene reporter induction in three colon cancer cell lines (stated jointly); assay type: cell-based
[8] = Metabolic stability with murine liver S9; assay type: in vitro ADME
Experimental: SW054384 (2 mM in DMSO) was incubated with Murine S9 (Lot KWB) fraction and Phase I (NADPH Regenerating System) cofactors for 0-240 minutes. Reactions were quenched with a 1 mL (1:1) of MeOH/(+)IS/0.2% Formic Acid, vortexed for 15 seconds, incubated at RT for 10 minutes and spun for 5 minutes at 2400 rpms. […] Supernatant (800 μL) was transferred to an HPLC vial (w/out insert) and analyzed by HPLC/MS. A: dH2O+0.1% FA B: MeOH+0.1% FA
SW125991 (2 mM in DMSO) was incubated with Murine S9 (Lot KWB) fraction and Phase I (NADPH Regenerating System) cofactors for 0-240 minutes. Reactions were quenched with 1 mL (1:1) of methanol containing 0.2% formic acid and 100 ng/ml IS (IS final conc.=50 ng/ml). Samples were vortexed for 15 seconds, incubated at RT for 10 minutes and spun for 5 minutes at 2400 rpm. […] Supernatant (800 μL) was transferred to an HPLC vial (w/out insert). Analyzed by Qtrap 3200 mass spectrometer.

[9] = test system: 15-PGDH mRNA in colon cancer cell lines; assay: 15-PGDH mRNA levels by real-time PCR; assay type: cell-based; details: treated colon cancer cell lines, real-time PCR
Text: In these studies parental cell lines (not containing the 15-PGDH-luciferase reporter) are employed.

[10] = read-out: Enzyme inhibition % (2.5 μM)
[11] = read-out: Enzyme inhibition % (7.5 μM)

T1 sequence (P15428 whole entry, the tested form may be a part): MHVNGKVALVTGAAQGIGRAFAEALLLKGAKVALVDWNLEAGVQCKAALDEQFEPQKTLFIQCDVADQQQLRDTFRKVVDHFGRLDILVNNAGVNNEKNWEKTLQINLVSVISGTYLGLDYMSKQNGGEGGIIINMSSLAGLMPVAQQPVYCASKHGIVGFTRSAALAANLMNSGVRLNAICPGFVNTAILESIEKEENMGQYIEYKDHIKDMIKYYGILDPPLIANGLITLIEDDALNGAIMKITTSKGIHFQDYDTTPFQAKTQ

Row | Structure (SMILES) | Increase in bone marrow derived colonies, in words [1] | Toxicity, CellTiter-Glo (A549 cells [5]) | inhibition at […] [4, 10] [%] | inhibition at […] [4, 11] [%] | Effect on PGE2 levels in medium, in words (A549 cells [6]) | Induction of 15-PGDH-luciferase reporter, in words [7] | other results
1 | CCCCC[C@H](O)/C=C/[C@H]1[C@H](O)CC(=O)[C@@H]1C/C=C\CCCC(=O)O [PGE2, prostaglandin E2] | lesser increase | – | – | – | – | – | –
2 | CCCC[S+]([O-])c1sc2nc(-c3nccs3)ccc2c1N (stereo not drawn) [SW206992, 2-(butylsulfinyl)-6-(thiazol-2-yl)thieno[2,3-b]pyridin-3-amine] | – | No effect on CellTitre-Glo levels | – | – | – | – | Melting temperature ([2]; 15-PGDH 10 uM, compound 20 uM, NAD(+) 100 uM, control 49): 59 degrees; V9M reporter activity ([…]) [3]: 121.75%; V9M reporter activity ([…]) ([3]; 100 = doubling): 86.44%; Time to inhibition (10 nM) ([4]; time needed to inhibit generation of NADH after drug is added): ~2 min; Toxicity (A549 cells [5]; concentration needed to decrease cell numbers in a cell culture assay): >7.5 µM; PGE2 levels achieved (A549 cells [6]; IL-1β 16 h, compound 8 h, highest level of titration): 2100 pg/mL; Concentration for Full Cell Line Reporter Induction ([7]; maximal induction of reporter, printed in uM): >1 µM
3 | CCCCC(C)(C)[C@H](O)/C=C/[C@H]1[C@H](O)CC(=O)[C@@H]1C/C=C\CCCC(=O)O [dmPGE2, 16,16-dimethyl PGE2] | slightly greater increase | – | – | – | – | – | –
4 | COc1ccc(OC)c(N(CC(=O)N2CCOCC2)S(=O)(=O)c2ccccc2)c1 [SW125991] | – | no toxicity | 11.6 | 31.6 | show activity in lowering PGE2 | retains activity in induction of the 15-PGDH-luciferase reporter assay; also recorded: active in inducing the 15-PGDH-luciferase reporter | Metabolic stability, in words [8]: marked improvement in metabolic stability; Inhibition of recombinant 15-PGDH, in words [4]: less inhibition of 15-PGDH at high compound concentration; also recorded: lesser inhibitory activity at high concentration
5 | COc1ccc(OC)c(N(CC(=O)Nc2cccnc2)S(=O)(=O)c2ccccc2)c1 [SW054384] | – | – | 20.2 | 58.2 | lower level of PGE2 produced; also recorded: show activity in lowering PGE2 | increase luciferase activity | Direct binding to recombinant 15-PGDH ([2]; melting temperature shift): cannot be demonstrated to bind 15-PGDH; 15-PGDH mRNA levels [9]: do not in general alter 15-PGDH mRNA levels; IC50 fold higher than that of SW033291 ([4]; FIG. 12): 10,000 fold
